Laboratory results taken from patent publication US12673975B2, “Cyclic peptide, cell scaffold material, cell separating material, and medium” (FUJIFILM Corporation, priority 2019, dated 2026).
Where two headings read alike, the source gives them in different places. Starred links: 1 amine or outer side, 2 acyl side, 3 side chain; linkers in the order of their positions; H or OH if unused. Positions of bridges follow the written chain, without caps; N, C: chain ends. Non-standard residues stand in square brackets, D forms with d. Residues, ends and D or L forms follow the SMILES beside them. hCys = N[C@@H](CCS)C(=O)O; Orn = NCCC[C@H](N)C(=O)O; Dab = NCC[C@H](N)C(=O)O; X1 = O=C(C[*:2])[*:1]; X2 = O=C(C[*:1])[*:2]

Columns and labels:
[1] = Evaluation of molecule stability (alkali treatment, residual rate by LC/MS); assay type: physicochemical; settings: for Stability (molecule stability, residual rate of the cyclic peptide rank): alkali treatment, residual rate by LC/MS; for Performance evaluation: Stability (residual rate of cyclic peptide after alkali treatment): 500 μM peptide aqueous solution plus equivalent of 1 M sodium hydroxide, 15° C., 3 hours, LC/MS peak area
Summary of the method: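 Stability read as percent of summed LC/MS peak area remaining versus untreated peptide (C18, 45 °C, 10 mM ammonium formate pH 3, ESI positive/negative). Treatment: 500 μM peptide in water plus an equivalent of 1 M NaOH, 15 °C for 3 hours.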

human integrin αvβ5 = human integrin αvβ5 (Homo sapiens, UniProt P06756+P18084); assay: Evaluation of integrin binding property (surface plasmon resonance, Biacore 3000, immobilized cyclic peptide)
Summary of the method: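 Human αvβ5 (30-1,000 nM) flowed for 10 min at 25 °C over immobilized cyclic peptide in 20 mM HEPES, 150 mM NaCl, 5 mM MgCl2, pH 7.4, followed by 30 min running buffer and 0.5 M EDTA regeneration. Dissociation constant from peptide minus unimmobilized channel, scored into standard grades.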

[2] = surface plasmon resonance, immobilized cyclic peptide, human integrin αvβ5, read-out: Binding activity (integrin binding property, dissociation constant rank)
[3] = SPR, 25° C., HEPES buffer with 5 mM magnesium chloride, integrin 30-1,000 nM, read-out: Performance evaluation: Binding activity (dissociation constant between the cyclic peptide and human integrin αvβ5)

Sequence of human integrin αvβ5 (P06756 31-1048): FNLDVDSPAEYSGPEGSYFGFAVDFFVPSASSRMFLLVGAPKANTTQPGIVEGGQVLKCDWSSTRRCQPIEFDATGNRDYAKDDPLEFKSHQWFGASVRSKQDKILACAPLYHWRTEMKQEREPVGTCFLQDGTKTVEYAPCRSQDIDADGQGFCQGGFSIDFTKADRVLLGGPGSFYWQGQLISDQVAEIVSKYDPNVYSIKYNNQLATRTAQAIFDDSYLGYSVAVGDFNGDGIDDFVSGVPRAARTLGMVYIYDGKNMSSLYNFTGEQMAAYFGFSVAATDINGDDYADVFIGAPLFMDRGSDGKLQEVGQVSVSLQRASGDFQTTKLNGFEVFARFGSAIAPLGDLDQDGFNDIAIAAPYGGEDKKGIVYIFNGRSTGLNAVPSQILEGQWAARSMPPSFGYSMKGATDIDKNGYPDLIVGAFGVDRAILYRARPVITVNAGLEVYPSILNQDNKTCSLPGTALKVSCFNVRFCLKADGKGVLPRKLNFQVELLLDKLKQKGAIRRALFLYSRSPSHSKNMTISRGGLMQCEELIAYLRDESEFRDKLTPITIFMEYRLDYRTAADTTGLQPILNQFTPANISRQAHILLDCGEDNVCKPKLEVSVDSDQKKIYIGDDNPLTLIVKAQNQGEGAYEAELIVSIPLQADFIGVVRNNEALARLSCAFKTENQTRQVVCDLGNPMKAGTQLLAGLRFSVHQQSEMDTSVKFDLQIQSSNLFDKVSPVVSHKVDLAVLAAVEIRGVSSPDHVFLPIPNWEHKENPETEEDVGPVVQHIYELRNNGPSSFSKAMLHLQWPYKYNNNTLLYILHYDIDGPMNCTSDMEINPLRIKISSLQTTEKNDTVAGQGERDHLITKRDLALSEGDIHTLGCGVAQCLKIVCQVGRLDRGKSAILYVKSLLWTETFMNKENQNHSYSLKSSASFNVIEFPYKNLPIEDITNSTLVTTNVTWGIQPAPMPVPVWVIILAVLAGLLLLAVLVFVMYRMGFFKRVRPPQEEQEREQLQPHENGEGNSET
Sequence of human integrin αvβ5 (P18084 24-799): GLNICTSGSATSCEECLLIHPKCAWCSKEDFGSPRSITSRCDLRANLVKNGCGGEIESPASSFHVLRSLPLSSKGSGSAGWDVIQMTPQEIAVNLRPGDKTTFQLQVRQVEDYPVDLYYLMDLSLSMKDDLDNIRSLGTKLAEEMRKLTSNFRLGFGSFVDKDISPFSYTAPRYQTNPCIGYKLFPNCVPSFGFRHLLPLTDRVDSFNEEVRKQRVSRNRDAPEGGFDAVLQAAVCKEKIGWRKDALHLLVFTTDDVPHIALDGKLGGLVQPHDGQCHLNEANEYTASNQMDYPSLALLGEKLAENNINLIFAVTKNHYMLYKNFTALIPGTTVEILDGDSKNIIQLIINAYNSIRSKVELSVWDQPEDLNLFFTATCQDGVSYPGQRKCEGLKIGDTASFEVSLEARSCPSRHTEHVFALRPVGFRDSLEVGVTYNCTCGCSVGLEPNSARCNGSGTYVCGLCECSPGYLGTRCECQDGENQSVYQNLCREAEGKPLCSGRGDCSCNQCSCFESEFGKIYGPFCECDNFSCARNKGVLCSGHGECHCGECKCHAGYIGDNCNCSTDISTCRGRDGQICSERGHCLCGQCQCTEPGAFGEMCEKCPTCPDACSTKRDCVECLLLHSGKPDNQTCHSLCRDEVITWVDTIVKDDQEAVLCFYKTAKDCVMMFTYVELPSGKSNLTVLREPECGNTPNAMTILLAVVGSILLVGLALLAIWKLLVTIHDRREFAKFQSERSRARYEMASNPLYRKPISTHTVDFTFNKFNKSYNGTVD

In the case of `CC[C@H](C)[C@@H]1NC(=O)[C@@H](NC(=O)CNC(=O)[C@H](CCCCN)NC(=O)[C@H](CCCCN)NC(=O)[C@@H](N)CCCCN)CCSCC(=O)NCCCC[C@@H](C(=O)N[C@@H](C)C(=O)O)NC(=O)[C@H](CCCNC(=N)N)NC(=O)[C@H](Cc2ccccc2)NC(=O)[C@H]([C@@H](C)O)NC(=O)[C@H](CC(=O)O)NC(=O)CNC(=O)[C@H](CCCNC(=N)N)NC(=O)[C@@H]2CCCN2C1=O` [Cyclic peptide 116, KKKG-(Hcy)-IPRGDTFR(Lys(acetyl))A] (H-KKKG[hCys]IPRGDTFRKA-OH; linker 5-14 via X2), the “Stability (molecule stability, residual rate of the cyclic peptide rank)” value [1] is reported as “A (The residual rate of the cyclic peptide is 70% or more.)” and the Kd (human integrin αvβ5; [2]) is reported as < 50 nM.

With `CC[C@H](C)[C@@H]1NC(=O)[C@@H](NC(=O)CNC(=O)[C@H](CCCCN)NC(=O)[C@H](CCCCN)NC(=O)[C@@H](N)CCCCN)CCCNC(=O)CSCC[C@@H](C(=O)N[C@@H](C)C(=O)O)NC(=O)[C@H](CCCNC(=N)N)NC(=O)[C@H](Cc2ccccc2)NC(=O)[C@H]([C@@H](C)O)NC(=O)[C@H](CC(=O)O)NC(=O)CNC(=O)[C@H](CCCNC(=N)N)NC(=O)[C@@H]2CCCN2C1=O` [Cyclic peptide 119, KKKG(Orn(acetyl))IPRGDTFR-(Hcy)-A] (H-KKKG[Orn]IPRGDTFR[hCys]A-OH; linker 5-14 via X1) the “Stability (molecule stability, residual rate of the cyclic peptide rank)” value [1] was “A (The residual rate of the cyclic peptide is 70% or more.)” and the Kd (human integrin αvβ5; [2]) was < 50 nM.

For `C[C@@H]1NC(=O)[C@H](Cc2ccccc2)NC(=O)[C@H]([C@@H](C)O)NC(=O)[C@H](CC(=O)O)NC(=O)CNC(=O)[C@H](CCCNC(=N)N)NC(=O)[C@@H]2CCCN2C(=O)[C@H](CC(=O)O)NC(=O)[C@@H](NC(=O)[C@H](CCCCN)NC(=O)[C@H](CCCCN)NC(=O)[C@@H](N)CCCCN)CCSCC(=O)NCC[C@@H](C(=O)O)NC1=O` [Cyclic peptide 144, KKK-(Hcy)-DPRGDTFA(Dab(acetyl))] (H-KKK[hCys]DPRGDTFA[Dab]-OH; linker 4-13 via X2), the “Stability (molecule stability, residual rate of the cyclic peptide rank)” value [1] was “A (The residual rate of the cyclic peptide is 70% or more.)” and the Kd (human integrin αvβ5; [2]) was < 50 nM.

For `CC[C@H](C)[C@@H]1NC(=O)[C@@H](NC(=O)[C@H](CCCCN)NC(=O)[C@H](CCCCN)NC(=O)[C@@H](N)CCCCN)CCSCC(=O)NCC[C@@H](C(=O)O)NC(=O)[C@H](C)NC(=O)[C@H](Cc2ccccc2)NC(=O)[C@H]([C@@H](C)O)NC(=O)[C@H](CC(=O)O)NC(=O)CNC(=O)[C@H](CCCNC(=N)N)NC(=O)[C@@H]2CCCN2C1=O` [Cyclic peptide 62, KKK-(Hcy)-IPRGDTFA(Dab(acetyl))] (H-KKK[hCys]IPRGDTFA[Dab]-OH; linker 4-13 via X2), the “Performance evaluation: Stability (residual rate of cyclic peptide after alkali treatment)” value [1] was “A (The residual rate of the cyclic peptide is 70% or more.)” and the Kd (human integrin αvβ5; [3]) was < 50 nM.

With `CC[C@H](C)[C@@H]1NC(=O)[C@@H](NC(=O)CNC(=O)[C@H](CCCCN)NC(=O)[C@H](CCCCN)NC(=O)[C@@H](N)CCCCN)CCSCC(=O)NCC[C@@H](C(=O)NCC(=O)O)NC(=O)[C@H](C)NC(=O)[C@H](Cc2ccccc2)NC(=O)[C@H](CO)NC(=O)[C@H](CC(=O)O)NC(=O)CNC(=O)[C@H](CCCNC(=N)N)NC(=O)[C@@H]2CCCN2C1=O` [Cyclic peptide 95, KKKG-(Hcy)-IPRGDSFA(Dab(acetyl))G] (H-KKKG[hCys]IPRGDSFA[Dab]G-OH; linker 5-14 via X2) the “Performance evaluation: Stability (residual rate of cyclic peptide after alkali treatment)” value [1] was “A (The residual rate of the cyclic peptide is 70% or more.)” and the Kd (human integrin αvβ5; [3]) was < 50 nM.

For `C[C@H](NC(=O)[C@@H]1CCNC(=O)CSCC[C@H](NC(=O)CNC(=O)[C@H](CCCCN)NC(=O)[C@H](CCCCN)NC(=O)[C@@H](N)CCCCN)C(=O)N[C@@H](CCC(=O)O)C(=O)N2CCC[C@H]2C(=O)N[C@@H](CCCNC(=N)N)C(=O)NCC(=O)N[C@@H](CC(=O)O)C(=O)N[C@@H]([C@@H](C)O)C(=O)N[C@@H](Cc2ccccc2)C(=O)N[C@@H](CCCNC(=N)N)C(=O)N1)C(=O)O` [Cyclic peptide 69, KKKG-(Hcy)-EPRGDTFR(Dab(acetyl))A] (H-KKKG[hCys]EPRGDTFR[Dab]A-OH; linker 5-14 via X2), the “Performance evaluation: Stability (residual rate of cyclic peptide after alkali treatment)” value [1] was “A (The residual rate of the cyclic peptide is 70% or more.)” and the Kd (human integrin αvβ5; [3]) was < 50 nM.
